Data taken from PMC9921329, “Semisynthetic Sesquiterpene Lactones Generated by the Sensibility of Glaucolide B to Lewis and Brønsted–Lowry Acids and Bases: Cytotoxicity and Anti-Inflammatory Activities” (Molecules, 2023).

Legend:
[1] = test system: SK-MEL-28 (human melanoma cell line); assay: MTT cell viability / cytotoxicity, human melanoma cells; format: cell-based; details: for Viability (%) SK-MEL-28 / CC50: MTT; for Viability (%) SK-MEL-28: 24 h incubation, mean ± SD (n = 3), test concentration not given; for CC50: Homo sapiens, SK-MEL-28, 24 h, half-maximal cytotoxic concentration; for SI (selectivity index) SK-MEL-28: ratio of CC50 of non-tumoral HUVEC cells to CC50 of SK-MEL-28
Experimental: (§1) To evaluate the potential antitumoral activity of the compounds, the MTT [3-(4,5-dimethyl-2-thiazolyl)-2,5-diphenyl-2H-tetrazolium bromide] method was used to determine the cell viability of SK-MEL-28 (human melanoma cell line), NCI-H460 (human lung carcinoma cell line), SF295 (human glioblastoma cell line), and HUVEC (human umbilical vein endothelial cells) line. Cell viability analysis of murine macrophage J774A.1 was conducted using a resazurin-based cytotoxicity assay (Alamar blue®). All cell lines were acquired from the BCRJ (Rio de Janeiro Cell Bank, Federal University of Rio de Janeiro, Brazil). The cell lines were cultivated in RPMI-1640 or DMEM medium, supplemented with 1.5 g/L of sodium bicarbonate, 10 mM of HEPES, pH 7.4, 100 U/mL of penicillin G, 100 μg/mL of streptomycin, and 10% fetal calf serum at 37 °C in a humidified atmosphere consisting of 95% air and 5% CO2 cultures, and greater than 95% of viable cells in trypan blue exclusion tests were used for the experiments. Therefore, cells were seeded (1 × 10^4/well) in 96-well plates and incubated with increasing concentrations of the compounds for 24 h. After incubation, the former culture medium was replaced with a fresh culture medium with 5 mg/mL of MTT and with 0.1 mg/mL of resazurin for 2 h at 37 °C. MTT formazan crystals were dissolved in DMSO, and the absorbance of each well was measured at 540 nm, using a micro-well system reader. For the control group of each cell line, cells were incubated without the compounds and considered to have 100% cell viability. MTT formazan crystals were dissolved in DMSO, and absorbance was measured at 540 nm using a microplate reader (ELX800, Biotek, Winooski, VT, USA). The half-maximal cytotoxic concentration (CC50) values were calculated from a Hill concentration–response curve. Results were expressed as the mean ± SD of three experiments. The selectivity index (SI) was calculated via the ratio between the CC50 of non-tumoral cells and the tumoral cell lines. […] For the resazurin assay, fluorescence was measured at 1 h intervals using a plate multi-reader (Infinite Multireader m200 Tecan) at 530–590 nm. Nonlinear regression of each fraction versus percentage cell viability was performed to obtain a 10% toxicity concentration (a concentration causing 90% cell viability) using GraphPad Prism 8.0 software (GraphPad Software, San Diego, CA, USA).

[2] = test system: SF295 (human glioblastoma cell line); assay: MTT cell viability, human glioblastoma cells; format: cell-based; details: 24 h incubation, mean ± SD (n = 3), test concentration not given
Experimental: as §1

[3] = test system: NCI-H460 (human lung carcinoma cell line); assay: MTT cell viability, human lung carcinoma cells; format: cell-based; details: 24 h incubation, mean ± SD (n = 3), test concentration not given
Experimental: as §1

[4] = MTT cytotoxicity, non-tumoral endothelial cells; format: cell-based, human; details: human, HUVEC cells (non-tumoral), pH 7.4
Experimental: as §1

[5] = test system: murine macrophage J774A.1; assay: Resazurin-based cytotoxicity assay (Alamar blue) in macrophages; format: cell-based; details: J774A.1, Figure S70
Experimental: To evaluate the potential antitumoral activity of the compounds, the MTT [3-(4,5-dimethyl-2-thiazolyl)-2,5-diphenyl-2H-tetrazolium bromide] method was used to determine the cell viability of SK-MEL-28 (human melanoma cell line), NCI-H460 (human lung carcinoma cell line), SF295 (human glioblastoma cell line), and HUVEC (human umbilical vein endothelial cells) line. Cell viability analysis of murine macrophage J774A.1 was conducted using a resazurin-based cytotoxicity assay (Alamar blue®). All cell lines were acquired from the BCRJ (Rio de Janeiro Cell Bank, Federal University of Rio de Janeiro, Brazil). […] MTT formazan crystals were dissolved in DMSO, and the absorbance of each well was measured at 540 nm, using a micro-well system reader. […] MTT formazan crystals were dissolved in DMSO, and absorbance was measured at 540 nm using a microplate reader (ELX800, Biotek, Winooski, VT, USA). The half-maximal cytotoxic concentration (CC50) values were calculated from a Hill concentration–response curve. Results were expressed as the mean ± SD of three experiments. The selectivity index (SI) was calculated via the ratio between the CC50 of non-tumoral cells and the tumoral cell lines. […] For the resazurin assay, fluorescence was measured at 1 h intervals using a plate multi-reader (Infinite Multireader m200 Tecan) at 530–590 nm. […]

[6] = test system: LPS-stimulated M1 macrophages J774A.1 (NOx); assay: Total nitrite nitrate (NOx) release from LPS-stimulated macrophages (Griess); format: cell-based, murine
Experimental: (§2) The in vitro anti-inflammatory activity was performed in murine macrophage J774A.1 and analyzed after modifications to the protocol previously described by […] and coworkers. The evaluation consisted of measuring the production of nitrite through an indicator of NO synthesis in supernatants from LPS-activated macrophages. A number of 1 × 10^5 cells/well were seeded in 96-well plates for 24 h, after which time the culture medium was changed, and the CC10 concentration (Figure S70, found in the Supplementary Materials) of each compound was added to the medium containing DMEM supplemented with 10% FBS. After 15 min, macrophages were stimulated with 10 μg/mL of LPS and incubated for 24 h to obtain a proinflammatory M1-phenotype. Subsequently, supernatants were collected and total nitrite nitrate (NOx) was measured by adding 100 μL of Griess' reagent (1% sulfanilamide and 0.1% N-(1-naphthyl) ethylenediamine in 0.5% phosphoric acid). Absorbance was determined with a microplate reader (ELX800, BioTek, Winooski, VT, USA) at 540 nm. In addition, the proinflammatory cytokine IL-6 was determined using an enzyme-linked immunosorbent assay (ELISA) (BD Bioscience, San Jose, CA, USA) according to the manufacturer's instructions.

[7] = test system: LPS-stimulated M1 macrophages J774A.1 (IL-6); assay: Interleukin-6 release from LPS-stimulated macrophages (ELISA); format: cell-based, murine
Experimental: as §2

[8] = compound at CC10, pre-treatment 15 min, LPS 10 μg/mL, 24 h

SMILES | Viability (%) SK-MEL-28 [1] [%] | Viability (%) SF295 [2] [%] | Viability (%) NCI-H460 [3] [%] | CC50 [1] [µM] | SI (selectivity index) SK-MEL-28 [1] | CC50 at 24 h [4] [µM] | Cytotoxicity against macrophages (in words) [5] | Anti-inflammatory activity, NOx release (in words) ([6]; compound at CC10, LPS 10 μg/mL) | Reduction of NOx release vs control M1 cells (LPS+ group) [6, 8] [%] | Anti-inflammatory activity, IL-6 release (in words) ([7]; compound at CC10, LPS 10 μg/mL) | Reduction of IL-6 release vs control M1 cells (LPS+ group) [7, 8] [%]
CC(=O)OCC1=C2C(OC(C)=O)CC(C)(OC(C)=O)C(=O)CCC3(C)OC3C2OC1=O (centres unmarked) [Compound 1, glaucolide B] | 82.6 ± 4.1 | 88.0 ± 4.8 | 85.1 ± 4.6 |  |  |  |  |  |  |  | 
COCC1=C2C(OC(C)=O)CC(C)(OC(C)=O)C3(O)CCC(C)(O)C(OC(C)=O)C23OC1=O (centres unmarked) [Compound 2, 13-O-methylvernojalcanolide-8-O-acetate] | 87.1 ± 2.6 | 86.8 ± 6.3 | 91.8 ± 3.6 |  |  |  |  |  |  |  | 
CC(=O)OCC1=C2C(OC(C)=O)CC(C)(OC(C)=O)C3(O)CCC(C)(O)C(OC(C)=O)C23OC1=O (centres unmarked) [Compound 3, 1,4-dihydroxy-5,8,10,13-tetraacetoxycadin-7(11)-en-6,12-olide] | 91.1 ± 1.7 | 86.1 ± 2.3 | 88.4 ± 3.4 |  |  |  |  |  |  |  | 
C=C1C(=O)OC2C(OC(C)=O)C3(C)CC4C12C(OC(C)=O)CC(C)(OC(C)=O)C4(O)O3 (stereo not drawn) [Compound 4, 5,8-diacetoxy-2-epi-vernomargolide-1,4-cyclosemiacetal] | 96.4 ± 6.9 | 94.7 ± 1.1 | 100.2 ± 2.7 |  |  |  |  |  |  |  | 
C=C1C(=O)OC2C(OC(C)=O)C3(C)CC4C12C(OC(C)=O)CC(C)(O)C4(O)O3 (stereo not drawn) [Compound 5, 5,8,10-triacetoxy-2-epi-vernomargolide-1,4-cyclosemiacetal] | 95.3 ± 4.1 | 95.6 ± 3.9 | 100.3 ± 5.5 |  |  |  |  |  |  |  | 
C=C1C(=O)OC2C(OC(C)=O)C3(C)CC4C12C(OC(C)=O)CC1(C)OC(C)(C)OC41O3 (stereo not drawn) [Compound 6, 5,8-diacetoxy-2-epi-vernomargolide-1,4-cycloacetal-1,10-acetonide] | 85.9 ± 4.0 | 90.4 ± 3.7 | 90.4 ± 1.5 |  |  |  |  |  |  |  | 
CC(=O)OCC1=C2C(OC(C)=O)CC(C)(OC(C)=O)C3(O)CCC(C)(O3)C(O)C2OC1=O (centres unmarked) [Compound 7, 5-hydroxy-hirsutinolide] | 76.2 ± 7.5 | 86.7 ± 3.8 | 89.1 ± 3.9 |  |  |  |  |  |  |  | 
CC(=O)OCC1=C2/C(=C\C3(C)CC=C(O3)C(C)(OC(C)=O)CC2OC(C)=O)OC1=O (centres unmarked) [Compound 7b, 8,10,13-triacetoxy-1(4)-epoxy-germacra-1(2),5(6),7(11)-trien-6(12)-olide] | 16.0 ± 2.6 | 83.3 ± 1.2 | 73.2 ± 1.0 | 11.2 | 2.5 | 27.8 |  |  |  |  | 
C=C1C(=O)OC2(O)C(=O)C3(C)CCC(=O)C(C)(OC(C)=O)CC(OC(C)=O)C12O3 (centres unmarked) [Compound 7c.1, 8,10-diacetoxy-4(7)-epoxy-6-hydroxy-1,5-oxo-germacr-11(13)-en-6(12)-olide] | 77.3 ± 0.3 | 87.0 ± 4.7 | 88.7 ± 6.7 |  |  |  | less cytotoxicity against macrophages | strongly reduced | ~77 | strongly reduced | ~77
CC(=O)OCC1=C2C(OC(C)=O)CC(C)(OC(C)=O)C3(O)CCC(C)(O3)C(=O)C2(O)OC1=O (centres unmarked) [Compound 7c] | 79.2 ± 6.4 | 88.6 ± 4.8 | 85.7 ± 1.6 |  |  |  |  |  |  |  | 
C=C1C(=O)OC2C(O)C3(C)CCC(OC(C)=O)(O3)C3(C)CC(OC(C)=O)C12O3 (centres unmarked) [Compound 8, 1,8-diacetoxy-1(4),7(10)-diepoxy-5-hydroxygermacr-11(13)-en-6(12)-olide] | 66.9 ± 3.5 | 82.0 ± 4.7 | 87.3 ± 1.6 |  |  |  |  |  |  |  | 
C=C1C(=O)OC2C(OC(C)=O)C3(C)CCC(OC(C)=O)(O3)C3(C)CC(OC(C)=O)C12O3 (centres unmarked) [Compound 8a, 1,5,8-triacetoxy-1(4),7(10)-diepoxy-germacr-11(13)-en-6(12)-o1ide] | 5.3 ± 0.3 | 67.3 ± 4.0 | 53.1 ± 0.0 | 3.1 | 3.0 | 9 |  |  |  |  | 
C=C1C(=O)OC2C(O)C(C)(O)CC3C(=O)C(C)(O)CC(OC(C)=O)C132 (centres unmarked) [Compound 9, 8-acetoxy-vernomargolide] | 74.5 ± 4.9 | 85.2 ± 2.8 | 84.9 ± 0.4 |  |  |  |  |  |  |  | 
C=C1C(=O)OC2C(OC(C)=O)C(C)(O)CC3C(=O)C(C)(O)CC(OC(C)=O)C132 (centres unmarked) [Compound 9a, 5,8-diacetoxy-vernomargolide] | 73.8 ± 3.1 | 85.9 ± 5.0 | 84.8 ± 0.9 |  |  |  |  |  |  |  | 
C=C(C)C(=O)OC1CC(C)(O)C2(O)CCC(C)(/C=C3/OC(=O)C(COC(C)=O)=C31)O2 (centres unmarked) [Compound 10, piptocarphin A, reference compound] | 23.1 ± 4.2 | 93.2 ± 3.2 | 104.8 ± 1.6 | 6.7 | 1.9 | 12.5 |  |  |  |  | 
CC(=O)OCC1=C2/C(=C\C3(C)CCC(O)(O3)C(C)(O)CC2OC(C)=O)OC1=O (centres unmarked) [Compound 12, diacetylpiptocarphol, reference compound] | 9.0 ± 0.5 | 80.4 ± 3.3 | 63.8 ± 6.9 | 3.8 | 3.3 | 12.6 |  |  |  |  | 
